Values quoted from earlier work as cited in patent publication US11000540B1, “Treatment for reducing adverse events including chemotherapy discomfort and other conditions” (priority 2019, dated 2021).

Details: buffer pair acid/conjugate base

Compound | pKa of Acid (or pH of 1:1 mixture)
NCC(=O)O [Glycine/Glycine anion, Glycine] | 9.60
O=S(=O)(O)CCNC1CCCCC1 [N-Cyclohexy1-2-aminoethanesuifonic acid] | 9.3
Boric Acid [Boric Acid/Borate] | 9.0
Tris(hydroxymethyl)aminomethane | 8.2
